We go through three compounds from article PMC11876601 (Molecular Systems Biology, 2025).

Experiment [1] concerns TBK1. Also on record: method as in Klaeger et al. (2017). To be noted: lysate 4 cell line mix (Colo205, K-562, MV-4-11, and SK-N-BE(2)), Kinobeads y, ref Klaeger et al. (2017); cited from earlier work.
Experiment [2] has as its system STK4. Also noted: method as in Klaeger et al. (2017). To be noted: STK4, 4 cell line mix lysate, Kinobeads y, ref Klaeger et al. (2017); cited from earlier work.
The subject of experiment [3] is IKBKE. Also on record: method as in Klaeger et al. (2017). The following applies: lysate 4 cell line mix (Colo205, K-562, MV-4-11, and SK-N-BE(2)), Kinobeads y, ref Klaeger et al. (2017); cited from earlier work.
The target of experiment [4] is EGFR. Also on record: method as in Reinecke et al. (2023). The following applies: 5 cell line mix lysate, Kinobeads ε, ref Reinecke et al. (2023), cited from earlier work.
Experiment [5] has as its system MAP3K12. Also on record: method as in Reinecke et al. (2023). To be noted: MAP3K12, 5 cell line mix lysate, Kinobeads ε, ref Reinecke et al. (2023), cited from earlier work.
The test system of experiment [6] is p-sites in AsPC-1 cells. Description: Phosphoproteomics 1 µM GEM vs. vehicle (4 h). The class given is cell-based, human. How it is done: (§1) Cell culture medium was replaced 24 h after seeding. […] For time point 0, AsPC-1 cells were treated with a vehicle and lysed immediately. The final DMSO concentration in all experiments was 0.2%.
Briefly, cells were washed twice with PBS and lysed in SDS lysis buffer (2% SDS in 40 mM Tris-HCl, pH 7.6), followed by sonication for 10 min (30 s on/30 s off) using a Bioruptor (Diagenode). For DNA hydrolysis, samples were boiled at 95 °C for 10 min and incubated with 2% trifluoroacetic acid (TFA) for 1 min, before the reaction was quenched using 4% N-methylmorpholine. Lysate was cleared by centrifugation at 11,000 × g for 5 min and protein concentration was determined using the Pierce BCA Protein Assay Kit (Thermo Scientific).
Using 70% ethanol, samples were then precipitated on beads, followed by washing thrice with 80% ethanol and once with 100% acetonitrile. Subsequently, proteins were reduced and alkylated using 10 mM TCEP, 50 mM chloroacetamide, and 2 mM CaCl2 in 100 mM EPPS/NaOH, pH 8.5 for 1 h at 37 °C, followed by tryptic digestion at 37 °C for 16 h. Peptides were acidified with 1% TFA and desalted on Chromabond HLB plates (30 µm particle size, 10 mg capacity, Machery-Nagel), using 0.1% TFA for equilibration and sample loading, and 0.1% TFA in 70% acetonitrile for peptide elution. Recovered peptides were freeze-dried by vacuum-centrifugation and stored at −20 °C.
Depending on the experiment, samples were either labeled with TMT-11plex (decryptM), TMT-10plex (non-decryptM, quadruplicates), or TMTpro reagent (time-series; all Thermo Scientific). Therefore, dried peptides were reconstituted in 15 µl 100 mM EPPS, pH 8.5 and each treatment condition was labeled with one channel of the respective TMT reagent (5 µl of 25 µg/µl reagent, Appendix Tables S4–S6). The reaction was incubated for 1 h at 23 °C and subsequently quenched with 0.4% hydroxylamine. Then, samples were pooled, acidified with 1% formic acid, and freeze-dried by vacuum-centrifugation. Labeled peptide pools were desalted on C18 Sep-Pak cartridges (37–55 µm particle size, 50 mg capacity, Waters), using 0.1% formic acid as equilibration solvent, and 0.1% formic acid in 60% acetonitrile was used as elution solvent. Eluted peptides were freeze-dried and stored at −20 °C until further use.
Basic reversed-phase (bRP) fractionation of peptides was performed on a Vanquish HPLC (Thermo Scientific). In short, dried peptides were reconstituted in 200 µl 25 mM ammonium bicarbonate, pH 8.0 and directly injected onto a Waters BEH130 XBridge C18 column (3.5 µm, 4.6 × 250 mm). […] Using an automated fraction collector, 96 fractions were collected between min 7 and 55 after injection. Fractions were acidified with 1% formic acid and pooled to 48 fractions, before they were freeze-dried and stored at −20 °C.
Immobilized metal ion affinity chromatography (IMAC) enrichment of phosphorylated peptides was performed on the Bravo automated liquid handling platform using AssayMAP Fe(III)-NTA cartridges (Agilent). In brief, the 48 dried peptide fractions were reconstituted in 0.1% TFA in 80% acetonitrile and further pooled to 12 fractions (200 µl final volume per well). The phosphopeptide enrichment protocol embedded in the Agilent AssayMAP Bravo Protein Sample Prep Workbench v2.0 software was run. Thereby, the cartridges were first primed with 150 μl 0.1% TFA in acetonitrile at 300 μl/min, and equilibrated with 150 μl 0.1% TFA in 80% acetonitrile at 10 μl/min. Then, pooled fractions were loaded at 5 µl/min and further washed three times with 150 μl 0.1% TFA in 80% acetonitrile at 50 μl/min. Enriched peptides were eluted with 60 μl 1% ammonium hydroxide at 5 μl/min.

Experiment [7] concerns protein expression in AsPC-1 cells. Kind of experiment: Time-dependent protein expression analysis (1 µM GEM or 1 µM ATRi, 15 min-24 h). The class given is cell-based, human. The following applies: GEM. How it is done: as §1
LC-MS/MS measurement of non-enriched, TMT-labeled peptides from temporal drug perturbation was carried out on an Orbitrap Fusion Lumos Tribrid instrument (Thermo Scientific) coupled to a micro-flow LC system built by combining a modified Vanquish pump and the autosampler of the Dionex UltiMate 3000 nano HPLC System (Thermo Scientific). Dried peptides were reconstituted in 0.1% formic acid and loaded directly onto an Acclaim PepMap 100 C18 column (2 μm particle size, 1 mm × 150 mm, Thermo Scientific) heated at 55 °C. […] Flow rates of sheath, aux, and sweep gas were kept at 32, 5, and 0, respectively. […] The cycle time between MS1 scans was 1.2 s, with a dynamic exclusion duration of 50 s.
Peptide and protein identification and quantification of time-series raw data was performed with MaxQuant (v2.1.3.0) using the same sequence information as above, with N-terminal acetylation and oxidized methionine as variable modifications and cysteine carbamidomethylation as fixed modification. All other search parameters were set as default. The resulting proteingroups.txt file was filtered to remove potential contaminants and reversed hits. Corrected TMT reporter channel intensities were median-centered, and ratios were calculated between treatments and their respective time-point controls (Appendix Table S6). Proteins were considered conversely regulated if absolute log2 fold change > 2 by at least one drug and oppositely affected by both drugs (up/down) at 24 h.

The structures appear in SMILES notation. “And” between values parts separate entries of the source, which are not always exact repeats. Identical values can stand only once.

A word on the EC50: it is the concentration that produces a half-maximal response.

Turning to `C[C@]12O[C@H](C[C@]1(O)CO)n1c3ccccc3c3c4c(c5c6ccccc6n2c5c31)CNC4=O` [Lestaurtinib], the EC50 in experiment [1] is […]; in experiment [2], 59.4 nM; in experiment [3], 1030 nM.
Turning to `COc1cc(N2CCC(N3CCN(C)CC3)CC2)ccc1Nc1ncc(Cl)c(Nc2ccccc2P(C)(C)=O)n1` [Brigatinib], the Kd in experiment [4] (read-out: KDapp) is 146 nM; in experiment [5] (read-out: KDapp) it was 563 nM. Besides, the figures for the EC50 in experiment [4] and in experiment [5] were 184 nM and 1040 nM, respectively. Further, the pKDapp in experiment [4] is on record as 6.84; in experiment [5] it was 6.25.
Turning to `Nc1ccn([C@@H]2O[C@H](CO)[C@@H](O)C2(F)F)c(=O)n1` [GEM, Gemcitabine], in experiment [6] (1 µM GEM vs. vehicle), the “increase of CHEK1-pS468 phosphorylation upon GEM” value was > 18 fold and 18 fold; the “increase of LRRC42-pS385 upon GEM” value was 4.8 fold and ~ 5 fold; the “increase of NSUN5-pS432 upon GEM” value is 7 fold; the “increase of PNISR-pS706 upon GEM” value was 4.6 fold. Moreover, in experiment [6] (1 µM GEM vs. vehicle), the “induction of HMGA1 pS9 by GEM” value is greater than 4 fold, the “induction of HMGA1 pS44 by GEM” value is recorded as greater than 4 fold, the “induction of PPM1G pS201 by GEM” value is on record as greater than 4 fold and the “induction of TSEN34 pS136 by GEM” value is recorded as greater than 4 fold. In experiment [6] (1,000 nM GEM vs. vehicle, n=4), the “GEM Regulation, PPM1G S201” value is on record as “up”; the “GEM Regulation, RALY S176” value is on record as “up”; the “GEM_log2FC, PPM1G S201” value turned out to be 2.66 log2; the “GEM_log2FC, RALY S176” value is 3.08 log2. For the same compound, the “Regulation_24h, CLN6 protein expression” value in experiment [7] (protein CLN6) is listed as “up”. Further, the “Regulation_24h, E2F6 protein expression” value in experiment [7] (protein E2F6) is recorded as “up”. Also, the “Regulation_24h, HELZ2 protein expression” value in experiment [7] (protein HELZ2) is on record as “up”. In addition, the “Regulation_24h, PRKACA protein expression” value in experiment [7] (protein PRKACA) is recorded as “up”. The “Regulation_24h, RASSF10 protein expression” value in experiment [7] (protein RASSF10) was “up”.
